The text below walks through data of patent US7256174B2, “Somatostatin and somatostatin agonists for treating insulin insensitivity and Syndrome X” (Societe de Conseils de Recherches et d'Applications …, priority 1997, dated 2007).

A short description of data set [1]: Weight loss study, chronic (6 day) treatment. The following applies: 3 mg/kg s.c. twice a day.
Data set [2] can be described thus: Lipidemia study, plasma glycerol and triglycerides. Format: in vivo, Obese (fa/fa) Zucker rats. On the procedure: Obese (fa/fa) Zucker rats were treated as in example 1 above. On the last day of treatment (day 6), food was removed at 5:00 p.m., and the rats were fasted overnight. At 9:00 a.m. the next day, the animals were subjected to a glucose challenge, given as 0.8 gram/kg of glucose orally. Periodic 400 μl of blood samples were taken from the tail vein (Peterson, R. G., ILAR News, 32:16-19 (1990)) 60 min. and 30 min. before and at 30, 60, 90, and 120 min. after the administration of the glucose challenge (0.8 gram/kg orally). Aprotinin (Traysylol, Bayer UK, Hayward's Health, W. Sussex, U.K.) and heparin (Sigma Chemical Co., Poole, Dorset, U.K.) were added to the blood samples to a final concentration of 400 KIU/ml and 100 units/ml, respectively. Plasma fractions were prepared from these samples by centrifugation at 4000×G in a microfuge, for the estimation of triglycerides and glycerol. Samples were then stored at −80° C. until assayed.
Plasma glycerol and triglycerides were determined using the Sigma Enzymatic (Tinder) calorimetric assay kit (Cat #337-B, Sigma Chemical Co., Poole, Dorset, U.K.) and measuring absorbance at 540 nm in a spectrophotometer.

Data set [3] is described as follows: Insulin sensitivity study, oral glucose challenge after chronic treatment. Format: in vivo, fatty (fa/fa) Zucker rats. The following applies: 3 mg/kg s.c. twice daily, 7 days. On the procedure: Male fatty Zucker rats (Harlan-Olac, Bicester, Oxon, U.K.), which were 15-17 weeks old, were randomly divided into two groups. The animals were house in pairs in a normal 12 hour light:12 hour darkness cycle at 20±2° C. and fed a standard laboratory rat diet (Beekay rat and mouse diet, Bantin & Kingman, Hull, Humberside, U.K.) ad libitum. For the group assigned to receive drug treatment, the rats received BIM-23268C at 3 mg/kg, by subcutaneous injection, twice a day at 10:00 AM and 5:00 PM. The other group, the control group, was treated with a subcutaneous injection of 0.1 ml/100 g of saline twice a day at 10:00 AM and 5:00 PM. […] On the last day of treatment, at 5:00 PM food was removed, and the rats were fasted overnight.
A method for assessing insulin sensitivity is to administer an oral glucose challenge and monitoring the secretion of insulin and disposal of glucose from the blood stream over a 240 min period (Bergman, R. N., et al., Endocrine Review 6:45-86 (1985)). […] 20 μl blood samples were taken from tail vein (Abdel-Halim, S. M., et al., Diabetes 43:281-288 (1994)) at −60 min, −30 min, 0 min, 30 min, 60 min, 90 min, 120 min, and 240 min.
The 20 μl samples were taken into 380 μl of hemolysis reagents (Sigma, Poole, Dorset, UK) containing 50 mg/liter of digitonin (Cat# D-1407) and 100 mg/liter of Maleimide (M-3766). From this, 100 μl of the hemolysed blood sample was added to 0.9 ml of Tinder reagent (Sigma Enzymatic calorimetric assay for blood glucose, Cat# 315-100, Sigma Chemical Co. Ltd, Poole, Dorset, UK). Blood glucose was determined according to vendor's recommendation at 505 nm.
Insulin was measured by the conventional radioimmunoassay method as described (Dunmore, S., & Beloff-Chain, A., J Endocrinol. 92:15-21 (1982)). Samples were assayed in triplicates with a 1:30000 dilution of an insulin antiserum (from guinea pig)raised in the laboratory (Dunmore, S. J., et al., J. Endocrinol. 137:375-381 (1993), and using ^125I-labelled bovine insulin, iodinated by the chloramine T method (Sambrook, et al., Molecular Cloning—A Laboratory Manual, Ed. 2., Cold Spring Harbor Laboratory Press, 1989). Rat insulin (2000U/0.1 ml, Novo Nordisk Laboratories, Basingstoke, Hants, U.K.) was used as a standard in the assay. The standards and samples were diluted in assay buffer containing NaH2PO4 5.7 g/L, bovine serum albumin (Sigma A4378, Sigma Chemical Co. Ltd., Poole, Dorset, UK) 5.0 g/L, NaN3 1.0 g/L buffered to pH 7.4). Antibody-bound insulin was separated on from free insulin by the addition of a second antibody (donkey anti-guinea pig Ig) coated on cellulose, Sac-Cel (IDS, Boldon, Tyne & Wear, UK). The antibody-bound insulin precipitate was separated by centrifugation. Counts bound were measured on an LKB Rackgamma solid scintillation counter.

[4] abbreviates: 3 mg/kg s.c. twice a day, six days, samples 30 and 60 minutes before oral glucose challenge.
[5] abbreviates: throughout the 2-hour test period after oral glucose challenge.
The mark [6] stands for this setting: 0.8 g/kg oral glucose challenge.

Bridge positions count the residues as written; N and C are the ends. Square brackets hold non-standard residues; d marks the D form. Peptide text beside a SMILES is read from it.

As to `C[C@@H](O)[C@@H]1NC(=O)[C@H](CCCCN)NC(=O)[C@@H](Cc2c[nH]c3ccccc23)NC(=O)[C@H](Cc2ccccc2)NC(=O)[C@H](Cc2ccccc2)NC(=O)[C@@H](N)CSSC[C@@H](C(N)=O)NC(=O)[C@H](Cc2ccccc2)NC1=O` [BIM-23268, H-Cys-Phe-Phe-D-Trp-Lys-Thr-Phe-Cys-NH2] (H-CFF[dW]KTFC-NH2; disulfide 1-8), in data set [1] (six days), the “body weight gain versus control” value is on record as “lower” and the “toxic effect / appearance of treated group” value is on record as “appeared healthy”. The compound also showed an average food consumption in data set [1] (six days (control 26.0)) of 25.9 g/rat/day. The “difference in amount of food consumed over the entire treatment period” value in data set [1] (six days, vs control) is reported as “no difference”. In data set [1] (after six days (control 414.09 to 418.89)), the “group mean weight after six days” value is on record as 413.6. In addition, in data set [1] (start of trial), the “group mean weight at the start of the trial” value was 413.6. For the same compound, in data set [2] (setting [4]), the plasma glycerol entry is on record as “significantly lowered” and the plasma triglycerides entry was “significantly lowered”. Moreover, the reducing hypertriglyceridemia result in data set [2] (6-day treatment at 3 mg/kg s.c. twice a day) was “effective”. For the same compound, in data set [2] (setting [5]), the plasma glycerol entry was “significantly lower” and the plasma triglycerides entry is on record as “significantly lower”. Besides, in data set [3], the hyperinsulinemia result is given as “suppressing” and the insulin-sensitivity entry is recorded as “improvement”. Besides, in data set [3] (setting [6]), the glucose tolerance result is reported as “did not show an impairment” and the “plasma glucose profile versus untreated group” value is “not significantly different”. Besides, in data set [3] (0.8 g/kg oral glucose challenge, vs saline control), the “glucose stimulated insulin secretion to the glucose challenge” value is “significant suppression”.
